Results on 15 compounds are retold here after patent US7935819B2, “Cyclic urea derivatives, preparation thereof and pharmaceutical use thereof as kinase inhibitors” (Aventis Pharma S.A., priority 2006, dated 2011).

Molecules are shown by their SMILES. pIC50: −log10 of the molar value. Read-outs that look alike come from different tables or passages of the source. A value given as a limit tells only on which side of the number the result lay.

Assay [1] addresses T1, IGF-1R (human cytoplasmic domain fused with GST) (Homo sapiens, UniProt P08069).
T1 construct: The human cytoplasmic domain of IGF-1R was cloned by fusion with glutathione S-transferase (GST); made in house; host or cells: SF21 insect cells (baculovirus, pFastBac-GST)
In words: Kinase IGF-1R test (Test A): inhibition of autophosphorylation of the enzyme, HTRF. As to conditions: 120 μM ATP. The assay is classed as biochemical. As to the method: A) Experimental Protocol for the Kinase IGF-1R Test:
The inhibitory activity of the compounds on IGF1R is determined by measuring the inhibition of autophosphorylation of the enzyme using a time-resolved fluorescence test (HTRF). The human cytoplasmic domain of IGF-1R was cloned by fusion with glutathione S-transferase (GST) in the baculovirus expression vector pFastBac-GST. The protein is expressed in the SF21 cells and purified to about 80% homogeneity. For the enzymatic test, the test compound at 10 mM dissolved in DMSO is diluted in 1/3 steps in a 50 mM Hepes, pH 7.5, 5 mM MnCl2, 50 mM NaCl, 3% Glycerol, 0.025% Tween 20 buffer. To measure the inhibition, the successive dilutions of the compound are preincubated for 30 minutes and 90 minutes in the presence of 5 nM of enzyme, the final DMSO concentration not exceeding 1%. The enzymatic reaction is initiated to have a final ATP concentration of 120 μM, and is stopped after 5 minutes by addition of 100 mM Hepes, pH 7.0 buffer containing 0.4 M of potassium fluoride, 133 mM EDTA, 0.1% BSA, the XL665-labelled antibody anti-GST and the anti-phosphotyrosine antibody conjugated to europium cryptate Eu—K (Cis-Bio Int.). The characteristics of the two fluorophores, XL-665 and Eu—K, are available in G. Mathis et al., Anticancer Research, 1997, 17, pages 3011-3014. The energy transfer between the excited europium cryptate to the acceptor XL665 is proportional to the degree of autophosphorylation of IGF-1R. The specific long-lasting signal of XL-665 is measured in a GENios Pro TECAN plate counter. The inhibition of autophosphorylation of IGF-1R at time 30 minutes and 90 minutes with the test compounds of the invention is calculated relative to a 1% in DMSO control, whose activity is measured in the absence of compound. The curve representing the percentage of inhibition as a function of the log of the concentration is established to determine the concentration corresponding to 50% inhibition (IC50).
For orientation: In TR-FRET formats the signal depends on donor and acceptor labels being close together.

Assay [2] concerns the target MEF-IGF1R cells (stable clone transfected with hIGF-1R) (Homo sapiens, UniProt P08069). In words: Proliferation/viability of MEF-IGF1R (Test C), [14C]thymidine incorporation. As to conditions: rhIGF1 100 ng/mL, 72 hours, read-out: Test C IC50. The assay is classed as cell-based. As to the method: C) Measurement of the Proliferation/Viability of MEF-IGF1R
Cell culture: the MEF-IGF1R cells (stable clone of cells transfected with the receptor hIGF-1R) are cultured at 37° C. under 5% CO2 in EMEM medium containing 10% FCS.
Test procedure: the cells are seeded at 5000 cells per well in 96-well Cytostar plates (Amersham) with 0.2 mL of EMEM culture medium at 37° C. for 18 hours. The cells are then washed twice with EMEM medium and left to culture without serum for 24 hours. The compounds are then added at various concentrations in the presence of rhIGF1 (100 ng/mL) and 0.1 μCi of Thymidine [^14C] (specific activity ˜50 mCi/mmol) to give 0.2 mL of volume per well. After incubation for 72 hours in the presence of the compound, at 37° C. under 5% CO2, the incorporation of Thymidine [^14C] is measured by counting the radioactivity on a Microbeta trilux counter (Perkin-Elmer). The IC50 is determined from 10 increasing concentrations of the compound.
(i) The tests are performed in duplicate and the mean of the two tests is calculated.
(ii) The value of the signal of the maximum response is calculated from the positive control: cells stimulated with IGF1 without compound.
(iii) Value of the signal of the minimum response is calculated from the negative control: cells not stimulated with IGF1 without compound.
(iv) By using these values as maximum (100%) and minimum (0%), respectively, the data were normalized so as to give a percentage of the maximum response.
(v) A curve of dose response is plotted and the IC50 (the concentration of which the compound induces a 50% decrease in the signal) of the compound is calculated by non-linear regression analysis.

Where [3] appears, read: preincubation with enzyme 30 minutes, read-out: Test A 30′ IC50.
The mark [4] stands for this setting: preincubation with enzyme 90 minutes, read-out: Test A 90′ IC50.

Sequence of MEF-IGF1R cells (stable clone transfected with hIGF-1R) (P08069 whole entry, change not shown): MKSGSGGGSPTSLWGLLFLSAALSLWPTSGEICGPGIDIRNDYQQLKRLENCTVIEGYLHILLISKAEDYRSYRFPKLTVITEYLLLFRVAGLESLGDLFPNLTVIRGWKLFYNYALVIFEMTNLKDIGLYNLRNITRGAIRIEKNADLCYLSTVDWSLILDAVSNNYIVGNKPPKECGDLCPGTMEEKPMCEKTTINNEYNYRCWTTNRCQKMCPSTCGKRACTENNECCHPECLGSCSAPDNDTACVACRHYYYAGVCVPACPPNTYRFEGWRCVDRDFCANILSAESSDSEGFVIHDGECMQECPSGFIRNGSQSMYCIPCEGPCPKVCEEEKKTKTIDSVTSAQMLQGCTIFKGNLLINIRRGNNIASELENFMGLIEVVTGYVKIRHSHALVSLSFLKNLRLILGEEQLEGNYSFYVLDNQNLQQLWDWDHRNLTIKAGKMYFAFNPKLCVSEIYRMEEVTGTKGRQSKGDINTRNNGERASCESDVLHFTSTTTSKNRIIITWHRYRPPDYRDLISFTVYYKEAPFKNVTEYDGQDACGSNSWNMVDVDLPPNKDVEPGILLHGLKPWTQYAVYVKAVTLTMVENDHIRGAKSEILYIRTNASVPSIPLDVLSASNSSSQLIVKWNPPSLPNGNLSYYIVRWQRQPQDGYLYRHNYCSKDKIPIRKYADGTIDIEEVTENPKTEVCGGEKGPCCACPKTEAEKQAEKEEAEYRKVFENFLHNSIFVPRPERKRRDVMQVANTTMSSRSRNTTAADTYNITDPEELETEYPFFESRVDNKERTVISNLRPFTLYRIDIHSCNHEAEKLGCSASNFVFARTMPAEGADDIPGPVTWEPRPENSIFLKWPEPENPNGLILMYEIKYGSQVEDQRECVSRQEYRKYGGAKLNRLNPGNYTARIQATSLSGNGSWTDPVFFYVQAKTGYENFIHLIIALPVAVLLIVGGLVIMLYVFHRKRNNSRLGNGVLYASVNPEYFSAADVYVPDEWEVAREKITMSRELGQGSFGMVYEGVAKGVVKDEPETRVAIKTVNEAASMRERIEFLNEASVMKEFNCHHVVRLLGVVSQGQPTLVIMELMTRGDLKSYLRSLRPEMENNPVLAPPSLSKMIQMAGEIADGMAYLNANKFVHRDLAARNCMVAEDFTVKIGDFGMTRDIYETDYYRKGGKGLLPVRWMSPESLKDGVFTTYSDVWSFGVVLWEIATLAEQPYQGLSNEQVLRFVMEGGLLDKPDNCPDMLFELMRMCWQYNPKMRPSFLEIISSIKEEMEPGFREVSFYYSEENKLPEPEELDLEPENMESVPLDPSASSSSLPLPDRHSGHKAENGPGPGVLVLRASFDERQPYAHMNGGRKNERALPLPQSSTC
T1 sequence (P08069 960-1367 limits assumed): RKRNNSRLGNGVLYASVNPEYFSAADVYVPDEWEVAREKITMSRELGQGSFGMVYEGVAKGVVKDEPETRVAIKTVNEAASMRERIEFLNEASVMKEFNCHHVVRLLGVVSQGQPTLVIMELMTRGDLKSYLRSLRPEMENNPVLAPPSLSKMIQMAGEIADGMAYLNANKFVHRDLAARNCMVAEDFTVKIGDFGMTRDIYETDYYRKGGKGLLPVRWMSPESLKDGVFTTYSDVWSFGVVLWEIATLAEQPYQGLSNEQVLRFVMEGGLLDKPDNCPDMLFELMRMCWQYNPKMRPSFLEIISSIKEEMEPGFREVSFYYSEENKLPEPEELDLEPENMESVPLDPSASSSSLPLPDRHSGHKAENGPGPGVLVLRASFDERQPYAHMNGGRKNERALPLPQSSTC

For `CC(C)(C)c1ccc(N2C(=O)N(Cc3ccnc(N)n3)C(C)(C)C2=O)cc1` [Example 1 Stage f), 1-[(2-aminopyrimidin-4-yl)methyl]-3-(4-tert-butylphenyl)-5,5-dimethylimidazolidine-2,4-dione], the negative logarithm of the IC50 (pIC50) in assay [1] (setting [3]) and in assay [1] (setting [4]) was 7.00 to 8.00 throughout. Besides, the GI50 in assay [2] was greater than 100 nM.

On to `CN(C)C(=O)Nc1nccc(CN2C(=O)N(c3ccc(C(C)(C)C)cc3)C(=O)C2(C)C)n1` [Example 2, 3-(4-{[3-(4-tert-butylphenyl)-5,5-dimethyl-2,4-dioxoimidazolidin-1-yl]methyl}pyrimidin-2-yl)-1,1-dimethylurea], for which the pIC50 in assay [1] (setting [3]) and in assay [1] (setting [4]) was less than 7.00 throughout. In assay [2], the GI50 was greater than 100 nM.

Turning to `CN(C)C(=O)Nc1cc(CN2C(=O)N(c3ccc4c(c3)N(C(=O)CNC3CCCC3)CC4(C)C)C(=O)C2(C)C)ccn1` [Example 3, 3-[4-({3-[1-(N-cyclopentylglycyl)-3,3-dimethyl-2,3-dihydro-1H-indol-6-yl]-5,5-dimethyl-2,4-dioxoimidazolidin-1-yl}methyl)pyridin-2-yl]-1,1-dimethylurea], the pIC50 (as a rule, −log10 of the IC50, conventionally taken in molar units) in assay [1] (setting [3]) is less than 7.00; in assay [1] (setting [4]) it was 7.00 to 8.00. Further, the GI50 in assay [2] was in the range of 10 to 100 nM.

Turning to `CC1(C)CN(C(=O)CNC2CCCC2)c2cc(N3C(=O)N(Cc4ccnc(Nc5cccnc5)c4)C(C)(C)C3=O)ccc21` [Example 4, 3-[1-(N-cyclopentylglycyl)-3,3-dimethyl-2,3-dihydro-1H-indol-6-yl]-5,5-dimethyl-1-{[2-(pyridin-3-ylamino)pyridin-4-yl]methyl}imidazolidine-2,4-dione], the negative logarithm of the IC50 (pIC50) in assay [1] (setting [3]) and in assay [1] (setting [4]) was 7.00 to 8.00 throughout. Moreover, the GI50 in assay [2] was less than 10 nM.

Regarding `CC1(C)C(=O)N(c2ccc(OC(F)(F)F)c(NC(=O)[C@H](N)c3ccccc3)c2)C(=O)N1Cc1ccnc(Nc2cccnc2)c1` [Example 5a, (2R)-2-amino-N-[5-(4,4-dimethyl-2,5-dioxo-3-{[2-(pyridin-3-ylamino)pyridin-4-yl]methyl}imidazolidin-1-yl)-2-(trifluoromethoxy)phenyl]-2-phenylacetamide], the pIC50 in assay [1] (setting [3]) and in assay [1] (setting [4]) was 7.00 to 8.00 each time. For the same compound, the GI50 in assay [2] is less than 10 nM.

Consider `CN(C)C(=O)Nc1cc(CN2C(=O)N(c3ccc(OC(F)(F)F)c(NC(=O)[C@H](N)c4ccccc4)c3)C(=O)C2(C)C)ccn1` [Example 6a, (2R)-2-amino-N-{5-[3-({2-[(dimethylcarbamoyl)amino]pyridin-4-yl}methyl)-4,4-dimethyl-2,5-dioxoimidazolidin-1-yl]-2-(trifluoromethoxy)phenyl}-2-phenylacetamide], for which the negative logarithm of the IC50 (pIC50) was less than 7.00 in assay [1] (setting [3]) and 7.00 to 8.00 in assay [1] (setting [4]). The GI50 in assay [2] is less than 10 nM.

In the case of `CC(C)(C)c1ccc(N2C(=O)N(Cc3ccnc(Nc4cncnc4)c3)C(C)(C)C2=O)cc1` [Example 7, 3-(4-tert-butylphenyl)-5,5-dimethyl-1-{[2-(pyrimidin-5-ylamino)pyridin-4-yl]methyl}imidazolidine-2,4-dione], the negative-log IC50 (pIC50) in assay [1] (setting [3]) and in assay [1] (setting [4]) was 7.00 to 8.00 in each case. In addition, in assay [2], the GI50 is greater than 100 nM.

Regarding `CC(C)(C)c1ccc(N2C(=O)N(Cc3ccnc(NC(=O)NCCCN4CCCC4)c3)C(C)(C)C2=O)cc1` [Example 9, 1-(4-{[3-(4-tert-butylphenyl)-5,5-dimethyl-2,4-dioxoimidazolidin-1-yl]methyl}pyridin-2-yl)-3-(3-pyrrolidin-1-ylpropyl)urea], the pIC50 in assay [1] (setting [3]) and in assay [1] (setting [4]) was 7.00 to 8.00 in each case. Moreover, in assay [2], the GI50 is greater than 100 nM.

In the case of `CC(C)(C)c1ccc(N2C(=O)N(Cc3ccnc(NC(=O)NC4CCCC4)c3)C(C)(C)C2=O)cc1` [Example 10, 1-(4-{[3-(4-tert-butylphenyl)-5,5-dimethyl-2,4-dioxoimidazolidin-1-yl]methyl}pyridin-2-yl)-3-cyclopentylurea], the pIC50 in assay [1] (setting [3]) and in assay [1] (setting [4]) was 7.00 to 8.00 each time. In addition, the GI50 in assay [2] was greater than 100 nM.

With `CC(C)(C)c1ccc(N2C(=O)N(Cc3ccnc(NC(=O)NCCN4CCCC4)c3)C(C)(C)C2=O)cc1` [Example 11, 1-(4-{[3-(4-tert-butylphenyl)-5,5-dimethyl-2,4-dioxoimidazolidin-1-yl]methyl}pyridin-2-yl)-3-(2-pyrrolidin-1-ylethyl)urea], the pIC50 in assay [1] (setting [3]) and in assay [1] (setting [4]) was 7.00 to 8.00 throughout. For the same compound, the GI50 in assay [2] is greater than 100 nM.

For the compound `CC(C)(C)c1ccc(N2C(=O)N(Cc3ccnc(NC(=O)NCCCCN4CCCC4)c3)C(C)(C)C2=O)cc1` [Example 12, 1-(4-{[3-(4-tert-butylphenyl)-5,5-dimethyl-2,4-dioxoimidazolidin-1-yl]methyl}pyridin-2-yl)-3-(4-pyrrolidin-1-ylbutyl)urea], the pIC50 was 7.00 to 8.00 in assay [1] (setting [3]) and greater than 8.00 in assay [1] (setting [4]). Moreover, the GI50 in assay [2] is greater than 100 nM.

In the case of `CC(C)(C)c1ccc(N2C(=O)N(Cc3ccnc(NC(=O)NC4CCCCC4)c3)C(C)(C)C2=O)cc1` [Example 16, 1-(4-{[3-(4-tert-butylphenyl)-5,5-dimethyl-2,4-dioxoimidazolidin-1-yl]methyl}pyridin-2-yl)-3-cyclohexylurea], the pIC50 is less than 7.00 in assay [1] (setting [3]) and 7.00 to 8.00 in assay [1] (setting [4]). Moreover, the GI50 in assay [2] was greater than 100 nM.

With `CC(C)(C)c1ccc(N2C(=O)N(Cc3ccnc(NC(=O)N4CCOCC4)c3)C(C)(C)C2=O)cc1` [Example 20, N-(4-{[3-(4-tert-butylphenyl)-5,5-dimethyl-2,4-dioxoimidazolidin-1-yl]methyl}pyridin-2-yl)morpholine-4-carboxamide], the figures for the pIC50 in assay [1] (setting [3]) and in assay [1] (setting [4]) were 7.00 to 8.00 and greater than 8.00, respectively. Besides, the GI50 in assay [2] is greater than 100 nM.

On to `CCCCN(C)C(=O)Nc1cc(CN2C(=O)N(c3ccc(C(C)(C)C)cc3)C(=O)C2(C)C)ccn1` [Example 27, 1-butyl-3-(4-{[3-(4-tert-butylphenyl)-5,5-dimethyl-2,4-dioxoimidazolidin-1-yl]methyl}pyridin-2-yl)-1-methylurea], for which the pIC50 in assay [1] (setting [3]) and in assay [1] (setting [4]) was 7.00 to 8.00 throughout. Further, the GI50 in assay [2] was greater than 100 nM.

With `CC(C)(C)c1ccc(N2C(=O)N(Cc3ccnc(Nc4cncc(F)c4)c3)C(C)(C)C2=O)cc1` [Example 31A, 3-(4-tert-butylphenyl)-1-({2-[(5-fluoropyridin-3-yl)amino]pyridin-4-yl}methyl)-5,5-dimethylimidazolidine-2,4-dione], the pIC50 in assay [1] (setting [3]) and in assay [1] (setting [4]) was 7.00 to 8.00 throughout. Further, the GI50 in assay [2] is greater than 100 nM.
